Measured values as given in article PMC5780498, “Discovery of novel bacterial topoisomerase I inhibitors by use of in silico docking and in vitro assays” (Scientific Reports, 2018).
Converted amounts (≈) assume the structure as drawn. Read-outs that look alike come from different tables or passages of the source.

Test system: M. smegmatis clone overexpressing recombinant MtbTopI (M+ strain)
Assay: microbe, parasite or virus in culture
Assay type: cell-based, Mycobacterium smegmatis
Settings: Mycolicibacterium smegmatis
[1] = 48 h, read-out: M+ Growth Inhibition (MIC)
[2] = read-out: M+ Growth Inhibition with TZ (MIC)

SMILES | MIC [1] | MIC [2]
Cc1cc2oc(C(=O)N3CCC(c4nc5ccccc5[nH]4)CC3)c(C)c2cc1C [Compound 8] | > 500 µM | 31.3 µM (≈ 12.1 µg/mL)
Cc1ccc2[nH]c(C3CCN(C(=O)c4oc5ccc(C)cc5c4C)CC3)nc2c1 [Compound 9] | > 500 µM | 31.3 µM (≈ 12.1 µg/mL)
Cc1ccc2oc(C(=O)N3CCC(O)(c4cccc(C(F)(F)F)c4)CC3)c(C)c2c1 [Compound 10] | > 500 µM | 46.9 µM (≈ 19.6 µg/mL)
Cc1c(C(=O)N2CCC(c3nnc(-c4nccc5ccccc45)o3)CC2)oc2ccccc12 [Compound 2] | > 250 µM | 62.5 µM (≈ 27.4 µg/mL)
COc1ccc2c(c1)NC1(CCN(C(=O)Cc3c[nH]c4ccccc34)CC1)NS2(=O)=O [Compound 3] | > 250 µM | 62.5 µM (≈ 27.5 µg/mL)
Cc1ccc(CN2C[C@]34C=C[C@H](O3)C(C(=O)N3CCn5cccc5C3)C4C2=O)cc1C (stereo partly shown) [Compound 7] | > 500 µM | > 500 µM
Cc1ccc2c(C)c(C(=O)N3CCC4(CC(=O)c5ccccc5O4)C3)oc2c1 (stereo not shown) [Compound 12] | > 500 µM | > 500 µM
Cc1c(C(=O)N2CCCCC2CCc2ccc(O)cc2)oc2c(F)cccc12 (stereo not shown) [Compound 11] | > 500 µM | 125 µM (≈ 47.7 µg/mL)
